# Measured values: patent US20250051851A1, “NOVEL BIOMARKER FOR DETECTION OF CANCER METASTASIS” (INDUSTRY-ACADEMIC COOPERATION FOUNDATION, YONSEI UNIVERSITY, priority 2021, published 2025)
# Test system: IKZF1 and IKZF3
# Assay: In vivo experiment using IKZF inhibitor: counting circulating tumor cells in melanoma mouse model
# Conditions: melanoma mouse model (B16F10 cells injected into paw pad); injection of the drug; FIG. 12
compound,measurement,value
Nc1cccc2c1C(=O)N(C1CCC(=O)NC1=O)C2=O (stereo not shown) [pomalidomide],number of circulating tumor cells,decreased
